PubChem BioAssay AID330 (DTP/NCI, 2004)
Several values for one entry are separate records, joined by “and”; a condition that tells them apart may be missing. Identical values can stand only once. Inconclusive results and toxic doses are left out.

System: P388 leukemia ip, CD2F1 mice, survival T/C
Assay: NCI In Vivo Anticancer Drug Screen. Data for tumor model P388 Leukemia (intraperitoneal) in CD2F1 (CDF1) mice
Details: endpoint: median survival time, higher = longer survival
Outline: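 Mice carrying the transplanted tumor received test compound or vehicle. Survival was recorded in each group, and the value is the treated-group measurement divided by that of the vehicle-treated control group.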

[1] = dose: 200.0 mg/kg/injection, schedule: Q04DX002 (ip), vehicle: saline with Tween-80
[2] = dose: 400.0 mg/kg/injection, schedule: Q04DX002 (ip), vehicle: saline with Tween-80
[3] = dose: 50.0 mg/kg/injection, schedule: Q01DX009 (ip), vehicle: Klucel (hydroxypropylcellulose) (HPC)
[4] = dose: 100.0 mg/kg/injection, schedule: Q01DX009 (ip), vehicle: Klucel (hydroxypropylcellulose) (HPC)
[5] = dose: 100.0 mg/kg/injection, schedule: Q04DX002 (ip), vehicle: saline with Tween-80
[6] = dose: 50.0 mg/kg/injection, schedule: Q01DX005 (ip), vehicle: saline
[7] = dose: 100.0 mg/kg/injection, schedule: Q01DX005 (ip), vehicle: saline
[8] = dose: 100.0 mg/kg/injection, schedule: Q04DX003 (ip), vehicle: saline with Tween-80
[9] = dose: 25.0 mg/kg/injection, schedule: Q01DX005 (ip), vehicle: Klucel (hydroxypropylcellulose) (HPC)
[10] = dose: 50.0 mg/kg/injection, schedule: Q01DX005 (ip), vehicle: Klucel (hydroxypropylcellulose) (HPC)
[11] = dose: 100.0 mg/kg/injection, schedule: Q01DX005 (ip), vehicle: Klucel (hydroxypropylcellulose) (HPC)
[12] = dose: 200.0 mg/kg/injection, schedule: Q01DX005 (ip), vehicle: Klucel (hydroxypropylcellulose) (HPC)
[13] = dose: 12.5 mg/kg/injection, schedule: Q01DX009 (ip), vehicle: saline with Tween-80
[14] = dose: 25.0 mg/kg/injection, schedule: Q01DX009 (ip), vehicle: saline with Tween-80
[15] = dose: 50.0 mg/kg/injection, schedule: Q01DX009 (ip), vehicle: saline with Tween-80

O=C1CC23CCCN2CCc2cc4c(cc2C3=C1O)OCO4 (stereo unspecified)
T/C (dose: 1.56 mg/kg/injection, schedule: Q01DX009 (ip), vehicle: water): 98 % of control
T/C (dose: 3.13 mg/kg/injection, schedule: Q01DX009 (ip), vehicle: water): 104 % of control
T/C (dose: 6.25 mg/kg/injection, schedule: Q01DX009 (ip), vehicle: water): 98 % of control
T/C (dose: 12.5 mg/kg/injection, schedule: Q01DX009 (ip), vehicle: water): 92 % of control
T/C (dose: 25.0 mg/kg/injection, schedule: Q01DX009 (ip), vehicle: water): 88 % of control

Brc1ccc(N=C2N=C(Nc3ccc(Br)cn3)c3ccccc32)nc1
T/C (dose: 12.5 mg/kg/injection, schedule: Q04DX002 (ip), vehicle: saline with Tween-80): 100 % of control
T/C (dose: 25.0 mg/kg/injection, schedule: Q04DX002 (ip), vehicle: saline with Tween-80): 94 % of control
T/C (dose: 50.0 mg/kg/injection, schedule: Q04DX002 (ip), vehicle: saline with Tween-80): 90 % of control
T/C [1]: 91 % of control
T/C [2]: 106 % of control

CN(C)C(=O)c1cccc(COc2ccc(N3C(N)=NC(N)=NC3(C)C)cc2Cl)c1
T/C (dose: 4.0 mg/kg/injection, schedule: Q01DX001 (ip), vehicle: saline): 96 % of control
T/C (dose: 8.0 mg/kg/injection, schedule: Q01DX001 (ip), vehicle: saline): 99 % of control
T/C (dose: 8.0 mg/kg/injection, schedule: Q01DX009 (ip), vehicle: saline): 107 % of control
T/C (dose: 16.0 mg/kg/injection, schedule: Q01DX001 (ip), vehicle: saline): 95 % of control
T/C (dose: 16.0 mg/kg/injection, schedule: Q01DX009 (ip), vehicle: saline): 100 % of control
T/C (dose: 16.0 mg/kg/injection, schedule: Q08DX002 (ip), vehicle: saline): 100 % of control
T/C (dose: 32.0 mg/kg/injection, schedule: Q01DX001 (ip), vehicle: saline): 93 % of control
T/C (dose: 32.0 mg/kg/injection, schedule: Q01DX009 (ip), vehicle: saline): 111 % of control
T/C (dose: 32.0 mg/kg/injection, schedule: Q08DX002 (ip), vehicle: saline): 110 % of control
T/C (dose: 64.0 mg/kg/injection, schedule: Q01DX001 (ip), vehicle: saline): 96 % of control

Clc1ccc(-c2nnc(-c3ccccc3)o2)cc1Cl
T/C [3]: 112 % of control
T/C [4]: 105 % of control
T/C (dose: 200.0 mg/kg/injection, schedule: Q01DX009 (ip), vehicle: Klucel (hydroxypropylcellulose) (HPC)): 112 % of control
T/C (dose: 400.0 mg/kg/injection, schedule: Q01DX009 (ip), vehicle: Klucel (hydroxypropylcellulose) (HPC)): 100 % of control

OC1COC(c2nn(-c3ccccc3)c3nc4ccc(Cl)cc4nc23)C1O (stereo unspecified)
T/C [5]: 107 % of control
T/C [1]: 97 % of control
T/C [2]: 95 % of control

CCSCCNC(=O)[C@@]1(O)[C@H](O)[C@]2(CC)C=CCN3CC[C@@]4(c5cc([C@@]6(OC(C)=O)C[C@H]7C=C(CC)CN(CCc8c6[nH]c6ccccc86)C7)c(OC)cc5N(C)[C@@H]14)[C@@H]32
T/C (dose: 0.5 mg/kg/injection, schedule: Q01DX001 (ip), vehicle: water): 118 % of control
T/C (dose: 1.0 mg/kg/injection, schedule: Q01DX001 (ip), vehicle: water): 118 % of control
T/C (dose: 4.0 mg/kg/injection, schedule: Q01DX001 (ip), vehicle: water): 165 % of control
T/C (dose: 8.0 mg/kg/injection, schedule: Q01DX001 (ip), vehicle: water): 174 % of control

CC1(C(=O)O)CCC2(C)CCC3(C)C(=CC(=O)C4C5(C)CCC(OC6OC(C(=O)O)C(O)C(O)C6OC6OC(C(=O)O)C(O)C(O)C6O)C(C)(C)C5CCC43C)C2C1 (stereo unspecified)
T/C [6]: 99 % of control
T/C [7]: 97 % of control
T/C (dose: 200.0 mg/kg/injection, schedule: Q01DX005 (ip), vehicle: saline): 103 % of control

CNC(=O)OCCC(OC(=O)NC)C1CCC2C3CCC4CCCCC4(C)C3CCC12C (stereo unspecified)
T/C (dose: 100.0 mg/kg/injection, schedule: Q04DX002 (ip), vehicle: Klucel (hydroxypropylcellulose) (HPC)): 113 % of control
T/C (dose: 200.0 mg/kg/injection, schedule: Q04DX002 (ip), vehicle: Klucel (hydroxypropylcellulose) (HPC)): 103 % of control
T/C (dose: 400.0 mg/kg/injection, schedule: Q04DX002 (ip), vehicle: Klucel (hydroxypropylcellulose) (HPC)): 110 % of control

COc1ccc2cc3[n+](cc2c1OC)CCc1cc2c(cc1-3)OCO2
T/C (dose: 1.25 mg/kg/injection, schedule: Q01DX009 (ip), vehicle: water): 99 % of control and 110 % of control
T/C (dose: 2.5 mg/kg/injection, schedule: Q01DX009 (ip), vehicle: water): 105 % of control
T/C (dose: 3.13 mg/kg/injection, schedule: Q01DX009 (ip), vehicle: Klucel (hydroxypropylcellulose) (HPC)): 95 % of control
T/C (dose: 5.0 mg/kg/injection, schedule: Q01DX009 (ip), vehicle: water): 110 % of control and 119 % of control
T/C (dose: 6.25 mg/kg/injection, schedule: Q01DX009 (ip), vehicle: Klucel (hydroxypropylcellulose) (HPC)): 107 % of control
T/C (dose: 10.0 mg/kg/injection, schedule: Q01DX009 (ip), vehicle: water): 110 % of control
T/C (dose: 12.5 mg/kg/injection, schedule: Q01DX009 (ip), vehicle: Klucel (hydroxypropylcellulose) (HPC)): 109 % of control
T/C (dose: 20.0 mg/kg/injection, schedule: Q01DX009 (ip), vehicle: water): 119 % of control

N=c1nc(-c2ccccc2)nc2[nH]c3c4cccc5cccc(c3nc12)c54
T/C (dose: 50.0 mg/kg/injection, schedule: Q01DX005 (ip), vehicle: Klucel + Tween-80): 90 % of control
T/C (dose: 100.0 mg/kg/injection, schedule: Q01DX005 (ip), vehicle: Klucel + Tween-80): 99 % of control
T/C (dose: 200.0 mg/kg/injection, schedule: Q01DX005 (ip), vehicle: Klucel + Tween-80): 99 % of control

NC(C(=O)O)C(CC(=O)O)c1ccncc1 (stereo unspecified)
T/C [8]: 96 % of control
T/C (dose: 200.0 mg/kg/injection, schedule: Q04DX003 (ip), vehicle: saline with Tween-80): 89 % of control
T/C (dose: 400.0 mg/kg/injection, schedule: Q04DX003 (ip), vehicle: saline with Tween-80): 98 % of control

Cc1ccc2c(N=Nc3ccc(C(=N)N)cc3)ccc(O)c2n1
T/C [9]: 104 % of control
T/C [10]: 113 % of control
T/C [11]: 111 % of control
T/C [12]: 105 % of control

CC1C(=O)OC2CC34C5CC(C(C)(C)C)C36C(OC(=O)C6O)OC4(C(=O)O5)C21O (stereo unspecified)
T/C [10]: 100 % of control
T/C [11]: 100 % of control
T/C [12]: 92 % of control

Cn1nnnc1NC#N
T/C (dose: 100.0 mg/kg/injection, schedule: Q01DX001 (ip), vehicle: Klucel (hydroxypropylcellulose) (HPC)): 107 % of control
T/C (dose: 200.0 mg/kg/injection, schedule: Q01DX001 (ip), vehicle: Klucel (hydroxypropylcellulose) (HPC)): 113 % of control
T/C (dose: 400.0 mg/kg/injection, schedule: Q01DX001 (ip), vehicle: Klucel (hydroxypropylcellulose) (HPC)): 108 % of control

OC(CC1CCCCN1)c1cc(C(F)(F)F)nc2c(C(F)(F)F)cccc12 (stereo unspecified)
T/C [13]: 101 % of control
T/C [14]: 100 % of control
T/C [15]: 108 % of control

OCC1CC(O)CN2CCc3c([nH]c4ccccc34)C2C1 (stereo unspecified)
T/C (dose: 12.5 mg/kg/injection, schedule: Q01DX005 (ip), vehicle: Klucel (hydroxypropylcellulose) (HPC)): 99 % of control
T/C [9]: 99 % of control
T/C [10]: 101 % of control

CCn1c(=O)c2cn[nH]c2n(CC)c1=O
T/C [3]: 108 % of control
T/C [4]: 104 % of control

Cc1cccc(Nc2ccccc2C(=O)O)c1C
T/C (dose: 6.25 mg/kg/injection, schedule: Q01DX009 (ip), vehicle: saline with Tween-80): 103 % of control
T/C [13]: 98 % of control
T/C [14]: 111 % of control
T/C [15]: 101 % of control

CC1(C)CC(=O)C(C2=NCCCC2)=C(O)C1
T/C [5]: 102 % of control
T/C [1]: 100 % of control
T/C [2]: 100 % of control

CCN(CC)CCNc1ncnc2[nH]ncc12
T/C [6]: 106 % of control
T/C [7]: 101 % of control

CCCCCCCCCCCCCCCC(=O)OCCCCCCCCCCC
T/C (dose: 25.0 mg/kg/injection, schedule: Q04DX003 (ip), vehicle: saline with Tween-80): 113 % of control
T/C (dose: 50.0 mg/kg/injection, schedule: Q04DX003 (ip), vehicle: saline with Tween-80): 95 % of control
T/C [8]: 90 % of control
